System: Plasmodium berghei
Assay: Luciferase/luciferin-expressing antifolate-resistant parasites were used to infect a culture of HepG2 cells that were pre-incubated with compounds. Infected hepatocytes emit light due to the luciferase reaction. Assay results are presented as the percent inhibition of light emission compared to control. […]
Assay type: functional
Details: sporozoite; for IC90: read-out: LUCIFERASE INFECTION ASSAY - IC90

| SMILES | IC90 | also measured |
| --- | --- | --- |
| Cc1nn(CC(C)C)c(Cl)c1C(=O)Nc1nc(-c2ccccn2)cs1 | 3350 nM | IC50 (HEPG2TOX_HILL_SLOPE 0.847, HEPG2TOX_R_SQUARED 0.93, PBLUC_HILL_SLOPE 12, PBLUC_R_SQUARED 0.706, read-out: LUCIFERASE INFECTION ASSAY - IC50): 2790 nM |
| Cc1ccccc1-c1cn2c(-c3ccc4c(c3)OCO4)cnc2cn1 | 821 nM | IC50 (HEPG2TOX_HILL_SLOPE 0.84, HEPG2TOX_R_SQUARED 0.902, PBLUC_HILL_SLOPE 1.93, PBLUC_R_SQUARED 0.734, read-out: LUCIFERASE INFECTION ASSAY - IC50): 263 nM |
| Cc1nn(-c2ccc(C(F)(F)F)cn2)c2ncc(CCCO)cc12 | > 10000 nM | IC50 (HEPG2TOX_HILL_SLOPE 0.869, HEPG2TOX_R_SQUARED 0.0884, read-out: LUCIFERASE INFECTION ASSAY - IC50): > 10000 nM |
| CC(C)Oc1ccc(-c2nc3c4c5c(sc4ncn3n2)CN(C)CC5)cc1 | > 8700 nM | IC50 (HEPG2TOX_HILL_SLOPE 0.881, HEPG2TOX_R_SQUARED 0.629, PBLUC_HILL_SLOPE 9.03, PBLUC_R_SQUARED 0.277, read-out: LUCIFERASE INFECTION ASSAY - IC50): 8350 nM |
| O=C1C=C/C(=N\Nc2ccccc2C(F)(F)F)c2cccnc21 | 1310 nM | IC50 (HEPG2TOX_HILL_SLOPE 0.86, HEPG2TOX_R_SQUARED 0.964, PBLUC_HILL_SLOPE 13.8, PBLUC_R_SQUARED 0.7, read-out: LUCIFERASE INFECTION ASSAY - IC50): 1120 nM |
| CC(C)n1ncc2cc(C(=O)Nc3ccc4oc5ccccc5c4c3)cnc21 | 6740 nM | IC50 (HEPG2TOX_HILL_SLOPE 0.893, HEPG2TOX_R_SQUARED 0.928, PBLUC_HILL_SLOPE 1.69, PBLUC_R_SQUARED 0.728, read-out: LUCIFERASE INFECTION ASSAY - IC50): 1840 nM |
| COC(=O)c1c(C)[nH]c(C(=O)N2CCCN(Cc3ccc(C(F)(F)F)cc3)CC2)c1C | 3510 nM | IC50 (HEPG2TOX_HILL_SLOPE 0.883, HEPG2TOX_R_SQUARED 0.94, PBLUC_HILL_SLOPE 33.9, PBLUC_R_SQUARED 0.31, read-out: LUCIFERASE INFECTION ASSAY - IC50): 3290 nM |
| O=C(c1cnn(C(=O)c2nn(-c3ccc(Cl)cc3)cc2O)c1)c1ccccc1O | 3830 nM | IC50 (HEPG2TOX_HILL_SLOPE 0.890, 1.11, HEPG2TOX_R_SQUARED 0.813, 0.357, PBLUC_HILL_SLOPE 9.04, 15.6, PBLUC_R_SQUARED 0.0255, 0.659, read-out: LUCIFERASE INFECTION ASSAY - IC50): 3140 nM |
| Cc1ccc(O)c(C(=O)NCC(C)c2ccccc2)c1 (configuration not stated) | 9340 nM | IC50 (HEPG2TOX_HILL_SLOPE 0.817, HEPG2TOX_R_SQUARED 0.794, PBLUC_HILL_SLOPE 3.45, PBLUC_R_SQUARED 0.175, read-out: LUCIFERASE INFECTION ASSAY - IC50): 4940 nM |
| COc1ccccc1N1CCN(c2ncnc3sc(C)c(-c4ccc(F)cc4)c23)CC1 | > 10000 nM | IC50 (HEPG2TOX_HILL_SLOPE 0.826, HEPG2TOX_R_SQUARED 0.707, read-out: LUCIFERASE INFECTION ASSAY - IC50): > 10000 nM |
| CC(C)NC(=O)c1c(NC(=O)c2cc(F)c(Cl)cc2F)nc2ccccn12 | 1420 nM | IC50 (HEPG2TOX_HILL_SLOPE 0.89, HEPG2TOX_R_SQUARED 0.947, PBLUC_HILL_SLOPE 3.47, PBLUC_R_SQUARED 0.71, read-out: LUCIFERASE INFECTION ASSAY - IC50): 755 nM |
| N#CC(C#N)=NNc1ccc(F)cc1F | > 16000 nM | IC50 (HEPG2TOX_HILL_SLOPE 0.862, HEPG2TOX_R_SQUARED 0.0964, read-out: LUCIFERASE INFECTION ASSAY - IC50): > 16000 nM |
| CC(C)CN1CCC1(C(=O)Nc1ccncc1)c1ccccc1 (configuration not stated) | 6570 nM | IC50 (HEPG2TOX_HILL_SLOPE 0.888, HEPG2TOX_R_SQUARED 0.951, PBLUC_HILL_SLOPE 1.36, PBLUC_R_SQUARED 0.753, read-out: LUCIFERASE INFECTION ASSAY - IC50): 1310 nM |
| CC(=O)Nc1ccc(NC(=O)C2=COC3=NC(=O)N(Cc4ccccc4C)CCN23)cc1 | > 10000 nM | IC50 (HEPG2TOX_HILL_SLOPE 0.88, HEPG2TOX_R_SQUARED 0.892, PBLUC_HILL_SLOPE 1, PBLUC_R_SQUARED 0.725, read-out: LUCIFERASE INFECTION ASSAY - IC50): 4160 nM |
| Cc1cc(C)nc(-n2[nH]c3[nH]c(-c4cccc5ccccc45)cc(=O)c3c2=O)n1 | 1990 nM | IC50 (HEPG2TOX_HILL_SLOPE 0.872, HEPG2TOX_R_SQUARED 0.686, PBLUC_HILL_SLOPE 1.74, PBLUC_R_SQUARED 0.695, read-out: LUCIFERASE INFECTION ASSAY - IC50): 566 nM |
| C=CCNC(=S)N1N=C2/C(=C/c3ccc(OCC)cc3)CCCC2C1c1ccc(OCC)cc1 (configuration not stated) | > 10000 nM | IC50 (HEPG2TOX_HILL_SLOPE 0.856, HEPG2TOX_R_SQUARED 0.318, PBLUC_HILL_SLOPE 2.55, PBLUC_R_SQUARED 0.497, read-out: LUCIFERASE INFECTION ASSAY - IC50): 4450 nM |

| SMILES | IC90 | also measured |
| --- | --- | --- |
| CC(Sc1nc(-c2ccccc2)c(-c2ccccc2)o1)C(=O)NCc1ccco1 (configuration not stated) | 8620 nM | IC50 (HEPG2TOX_HILL_SLOPE 0.891, HEPG2TOX_R_SQUARED 0.604, PBLUC_HILL_SLOPE 2.26, 2.77, PBLUC_R_SQUARED 0.745, 0.857, read-out: LUCIFERASE INFECTION ASSAY - IC50): 5300 nM |
| Cc1ccc(-c2cs/c(=N\CCN3CCOCC3)n2/N=C/c2cccs2)cc1C | > 10000 nM | IC50 (HEPG2TOX_HILL_SLOPE 0.856, HEPG2TOX_R_SQUARED 0.317, read-out: LUCIFERASE INFECTION ASSAY - IC50): > 10000 nM |
| C/C(=N\NC(=O)c1ccc(C(F)(F)F)cc1)c1ccccc1O | 3380 nM | IC50 (HEPG2TOX_HILL_SLOPE 0.838, HEPG2TOX_R_SQUARED 0.996, PBLUC_HILL_SLOPE 3.61, PBLUC_R_SQUARED 0.312, read-out: LUCIFERASE INFECTION ASSAY - IC50): 1840 nM |
| Cc1cc(SC(C)C(=O)N(Cc2ccccc2)Cc2ccccc2)nc2ccccc12 (configuration not stated) | > 10000 nM | IC50 (HEPG2TOX_HILL_SLOPE 0.863, HEPG2TOX_R_SQUARED 0.817, read-out: LUCIFERASE INFECTION ASSAY - IC50): > 10000 nM |
| COc1ccc(/C=C/c2ccc3c(Cl)cc(Cl)c(O)c3n2)cc1 | 430 nM | IC50 (HEPG2TOX_HILL_SLOPE 0.83, HEPG2TOX_R_SQUARED 0.868, PBLUC_HILL_SLOPE 16.3, PBLUC_R_SQUARED 0.735, read-out: LUCIFERASE INFECTION ASSAY - IC50): 375 nM |
| O=C(Nc1ccc(Br)c(C(F)(F)F)c1)c1ccc(N2CCOCC2)nc1 | > 10000 nM | IC50 (HEPG2TOX_HILL_SLOPE 0.861, HEPG2TOX_R_SQUARED 0.877, PBLUC_HILL_SLOPE 1.11, PBLUC_R_SQUARED 0.718, read-out: LUCIFERASE INFECTION ASSAY - IC50): 1480 nM |
| Cn1ccc2cc(-c3cn4c(-c5ccc6c(c5)OCO6)cnc4cn3)ccc21 | 402 nM | IC50 (HEPG2TOX_HILL_SLOPE 0.831, HEPG2TOX_R_SQUARED 0.884, PBLUC_HILL_SLOPE 11.3, PBLUC_R_SQUARED 0.726, read-out: LUCIFERASE INFECTION ASSAY - IC50): 330 nM |
| COc1ccccc1-[n+]1c(C)cc(C=C2Sc3ccc4ccccc4c3N2C)cc1C | 611 nM | IC50 (HEPG2TOX_HILL_SLOPE 0.863, HEPG2TOX_R_SQUARED 0.853, PBLUC_HILL_SLOPE 2.28, PBLUC_R_SQUARED 0.851, read-out: LUCIFERASE INFECTION ASSAY - IC50): 233 nM |
| FC(F)(F)c1cccc(CNc2ncnc3sccc23)c1 | 6390 nM | IC50 (HEPG2TOX_HILL_SLOPE 0.888, 1.51, HEPG2TOX_R_SQUARED 0.921, 0.862, PBLUC_HILL_SLOPE 1.26, 1.66, PBLUC_R_SQUARED 0.564, 0.617, read-out: LUCIFERASE INFECTION ASSAY - IC50): 1420 nM |
| O=C(c1ccc(-n2cccn2)cc1)N1CCC(n2c(=O)[nH]c3ccccc32)CC1 | > 10000 nM | IC50 (HEPG2TOX_HILL_SLOPE 0.884, HEPG2TOX_R_SQUARED 0.19, PBLUC_HILL_SLOPE 11.8, PBLUC_R_SQUARED 0.218, read-out: LUCIFERASE INFECTION ASSAY - IC50): 9850 nM |
| OCc1ccc(-c2cnc3ccc(NCc4ccc(F)cc4)nn23)cc1 | 1240 nM | IC50 (HEPG2TOX_HILL_SLOPE 0.86, HEPG2TOX_R_SQUARED 0.883, PBLUC_HILL_SLOPE 13, PBLUC_R_SQUARED 0.726, read-out: LUCIFERASE INFECTION ASSAY - IC50): 1050 nM |
| COc1ccccc1N(Cc1nc(N)nc(Nc2ccc(C)cc2)n1)S(=O)(=O)c1cccs1 | 4300 nM | IC50 (HEPG2TOX_HILL_SLOPE 0.853, HEPG2TOX_R_SQUARED 0.978, PBLUC_HILL_SLOPE 2.92, PBLUC_R_SQUARED 0.627, read-out: LUCIFERASE INFECTION ASSAY - IC50): 2030 nM |
| COc1ccc(CNC(=O)CCOc2ccc(C(C)(C)C)cc2)cc1OC | > 10000 nM | IC50 (HEPG2TOX_HILL_SLOPE 0.891, HEPG2TOX_R_SQUARED 0.4, PBLUC_HILL_SLOPE 0.658, PBLUC_R_SQUARED 0.48, read-out: LUCIFERASE INFECTION ASSAY - IC50): 4600 nM |
| O=C(Cc1cn2ccsc2n1)NNC(=O)c1cc(Cl)ccc1O | 414 nM | IC50 (HEPG2TOX_HILL_SLOPE 0.838, HEPG2TOX_R_SQUARED 0.788, PBLUC_HILL_SLOPE 20.5, PBLUC_R_SQUARED 0.865, read-out: LUCIFERASE INFECTION ASSAY - IC50): 372 nM |
| CCOC(=O)Nc1nc2ccc(C(F)(F)F)cc2[nH]1 | 1100 nM | IC50 (HEPG2TOX_HILL_SLOPE 0.892, HEPG2TOX_R_SQUARED 0.914, PBLUC_HILL_SLOPE 2.52, PBLUC_R_SQUARED 0.681, read-out: LUCIFERASE INFECTION ASSAY - IC50): 459 nM |

Reference: ChEMBL document CHEMBL4483862, “Open-source discovery of chemical leads for next-generation chemoprotective antimalarials” (2018)
